Test results published in ChEMBL document CHEMBL1158749, “Cytotoxic cembranoid diterpenes from a soft coral Sinularia gibberosa” (J Nat Prod, 2005).
Converted amounts (≈) assume the structure as drawn.

Columns and labels:
Type in all cases: functional, cell-based
[1] = tested on: MDA-MB-435; assay: Cytotoxicity against human MDA-MB-435 cells by SRB assay
[2] = tested on: HL-60; assay: Cytotoxicity against human HL60 cells by MTT assay
[3] = tested on: BGC-823; assay: Cytotoxicity against human BGC823 cells by SRB assay

`C=C1C(=O)O[C@@H]2[C@@H]1C[C@H]1O[C@]1(CO)CC/C=C(\C)CC/C=C(\C)[C@@H]2O` [SINULAROLIDE C] was tested, and the IC50 [1] was 7.7 µg/mL (≈ 22.1 µM), the IC50 [2] was 5.1 µg/mL (≈ 14.6 µM) and the IC50 [3] was 5.2 µg/mL (≈ 14.9 µM).
`C=C1C(=O)O[C@@H]2[C@@H]1C[C@H]1O[C@]1(CO)CC/C=C(\C)CC/C=C(\C)[C@H]2O` [SINULAROLIDE B] gave an IC50 [1] of 8 µg/mL (≈ 23 µM), an IC50 [2] of 5.2 µg/mL (≈ 14.9 µM) and an IC50 [3] of 6.3 µg/mL (≈ 18.1 µM).
`C=C1C(=O)O[C@@H]2[C@@H]1C[C@@H]1O[C@]1(C)CC/C=C(\C)CC/C=C(\C)[C@@H]2O` [SINULAROLIDE E] gave an IC50 [1] of 2.1 µg/mL (≈ 6.32 µM), an IC50 [2] of 6 µg/mL (≈ 18 µM) and an IC50 [3] of 8.6 µg/mL (≈ 25.9 µM).
`C=C1C(=O)O[C@H]2C/C(C)=C/CC/C(C)=C/CC[C@@]3(CO)O[C@@H]3C[C@H]12` [SINULAROLIDE D] gave an IC50 [1] of over 10 µg/mL, an IC50 [2] of 2.3 µg/mL (≈ 6.92 µM) and an IC50 [3] of 6.1 µg/mL (≈ 18.3 µM).
For `C=C1C(=O)O[C@@H]2[C@@H]1C[C@H](O)[C@@](O)(CO)CC/C=C(\C)CC/C=C(\C)[C@@H]2O` [SINULAROLIDE A], the IC50 [1] was over 10 µg/mL, the IC50 [2] was over 10 µg/mL and the IC50 [3] was over 10 µg/mL.
